Experimental data: the supplement of paper PMC8671470

Tests used:
Conditions in all cases: 72 h
BV-173 [1] = system: BV-173
Method in brief: (§1)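 Dose–response data were fitted with a four-parameter log-logistic model. They came from fifteen myeloid leukaemia lines treated in duplicate with five tenfold doses from 1 to 10,000 nM for 72 h at 37 °C with 5% CO2, with ATP viability normalised to vehicle and to a positive control at 10 µM. The IC50 was derived from these fits.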

HEL [2] = system: HEL
Method in brief: as §1

HL-60 [3] = system: HL-60
Method in brief: as §1

K-562 [4] = system: K-562
Method in brief: as §1

KCL-22 [5] = system: KCL-22
Method in brief: as §1

KG-1 [6] = system: KG-1
Method in brief: as §1

KU-812 [7] = system: KU-812
Method in brief: as §1

LAMA-84 [8] = system: LAMA-84
Method in brief: as §1

ML-2 [9] = system: ML-2
Method in brief: as §1

MOLM-13 [10] = system: MOLM-13
Method in brief: as §1

MV4-11 [11] = system: MV4-11
Method in brief: as §1

Mono-Mac-6 [12] = system: Mono-Mac-6
Method in brief: as §1

NOMO-1 [13] = system: NOMO-1
Method in brief: as §1

SHI-1 [14] = system: SHI-1
Method in brief: as §1

THP-1 [15] = system: THP-1
Method in brief: as §1

BV-173 [16] = assay: cell viability (% survival relative to DMSO control, bortezomib = 0%); higher = less cytotoxic
Method in brief: (§2)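 Seeding density for each of the 10 AML and 5 CML cell lines was titrated to the linear growth range. Cells went into 384-well plates pre-printed in duplicate with compounds at 1, 10, 100, 1000 or 10000 nM and were held for 72 h at 37 °C with 5% CO2. CellTiter-Glo luminescence then provided the readout. Percent survival is expressed relative to vehicle at 100% and a 10 µM positive control at 0%, averaged over duplicates.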

HEL [17] = assay: as above
Method in brief: as §2

HL-60 [18] = assay: as above
Method in brief: as §2

K-562 [19] = assay: as above
Method in brief: as §2

KCL-22 [20] = assay: as above
Method in brief: as §2

KG-1 [21] = assay: as above
Method in brief: as §2

KU-812 [22] = assay: as above
Method in brief: as §2

LAMA-84 [23] = assay: as above
Method in brief: as §2

ML-2 [24] = assay: as above
Method in brief: as §2

MOLM-13 [25] = assay: as above
Method in brief: as §2

MV4-11 [26] = assay: as above
Method in brief: as §2

Mono-Mac-6 [27] = assay: as above
Method in brief: as §2

NOMO-1 [28] = assay: as above
Method in brief: as §2

SHI-1 [29] = assay: as above
Method in brief: as §2

THP-1 [30] = assay: as above
Method in brief: as §2

O=C(O)CC[N+](=O)[O-] [3-nitropropionic acid]
Conditions | IC50 (cell viability) [µM]
BV-173 [1] | > 10
HEL [2] | > 10
HL-60 [3] | 4.69
K-562 [4] | 3.64
KCL-22 [5] | > 10
KG-1 [6] | > 10
KU-812 [7] | > 10
LAMA-84 [8] | > 10
ML-2 [9] | > 10
MOLM-13 [10] | 2.87
MV4-11 [11] | 3.17
Mono-Mac-6 [12] | > 10
NOMO-1 [13] | > 10
SHI-1 [14] | 2.94
THP-1 [15] | > 10

cell viability [%]
Conditions | 1 nM | 10 nM | 100 nM | 1000 nM | 10000 nM
BV-173 [16] | 93.7 | 93.5 | 106 | 114 | 93.7
HEL [17] | 92.8 | 116 | 117 | 98.8 | 104
HL-60 [18] | 52.3 | 157 | 104 | 108 | 14.7
K-562 [19] | 112 | 120 | 89.7 | 95 | 10.5
KCL-22 [20] | 73.9 | 101 | 98.3 | 123 | 81
KG-1 [21] | 99 | 91.2 | 97.3 | 97.3 | 104
KU-812 [22] | 95.5 | 103 | 99.8 | 99.2 | 88.1
LAMA-84 [23] | 104 | 103 | 98.6 | 97.5 | 103
ML-2 [24] | 104 | 107 | 107 | 102 | 87
MOLM-13 [25] | 68.7 | 122 | 110 | 94 | 0.718
MV4-11 [26] | 105 | 115 | 87.2 | 99.5 | 0.752
Mono-Mac-6 [27] | 102 | 93.6 | 101 | 97.4 | 104
NOMO-1 [28] | 94.8 | 93.2 | 101 | 104 | 93.4
SHI-1 [29] | 90.7 | 120 | 97.5 | 92.9 | 3.76
THP-1 [30] | 88.2 | 96.7 | 99.1 | 86.5 | 92.2

CCOC(=O)c1sc(NC(=O)c2ccco2)c(SC#N)c1C [CBR-5884]
Conditions | IC50 (cell viability) [µM]
BV-173 [1] | > 10
HEL [2] | > 10
HL-60 [3] | > 10
K-562 [4] | > 10
KCL-22 [5] | > 10
KG-1 [6] | > 10
KU-812 [7] | > 10
LAMA-84 [8] | > 10
ML-2 [9] | > 10
MOLM-13 [10] | > 10
MV4-11 [11] | 7.25
Mono-Mac-6 [12] | > 10
NOMO-1 [13] | > 10
SHI-1 [14] | > 10
THP-1 [15] | > 10

cell viability [%]
Conditions | 1 nM | 10 nM | 100 nM | 1000 nM | 10000 nM
BV-173 [16] | 100 | 111 | 87.5 | 105 | 80
HEL [17] | 102 | 102 | 98.2 | 104 | 86.5
HL-60 [18] | 103 | 102 | 89.5 | 92.7 | 59.4
K-562 [19] | 89.9 | 105 | 92.7 | 88.9 | 83.7
KCL-22 [20] | 110 | 85.5 | 107 | 105 | 94.6
KG-1 [21] | 90.5 | 83.3 | 103 | 94.3 | 74.9
KU-812 [22] | 93.5 | 101 | 109 | 94.8 | 88.3
LAMA-84 [23] | 89.2 | 102 | 103 | 102 | 99.1
ML-2 [24] | 94.5 | 97.2 | 104 | 99.3 | 60.5
MOLM-13 [25] | 97.2 | 82.9 | 112 | 97.3 | 81.4
MV4-11 [26] | 79.9 | 96.3 | 116 | 88.3 | 51.1
Mono-Mac-6 [27] | 94.9 | 111 | 102 | 103 | 91.1
NOMO-1 [28] | 99.8 | 104 | 97.4 | 100 | 94.5
SHI-1 [29] | 90.4 | 87.1 | 102 | 103 | 81.3
THP-1 [30] | 102 | 97.1 | 98.1 | 94.4 | 100

O=C(/C=C/c1ccc(O)c(O)c1)OCCc1ccccc1 [Caffeic acid phenethyl ester]
Conditions | IC50 (cell viability) [µM]
BV-173 [1] | 0.664
HEL [2] | 4.18
HL-60 [3] | 1.07
K-562 [4] | > 10
KCL-22 [5] | 2.21
KG-1 [6] | 1.1
KU-812 [7] | 0.649
LAMA-84 [8] | 6.17
ML-2 [9] | 1.26
MOLM-13 [10] | > 10
MV4-11 [11] | 1.39
Mono-Mac-6 [12] | 3.47
NOMO-1 [13] | > 10
SHI-1 [14] | > 10
THP-1 [15] | 6.98

cell viability [%]
Conditions | 1 nM | 10 nM | 100 nM | 1000 nM | 10000 nM
BV-173 [16] | 93.2 | 102 | 94.3 | 31.9 | 1.21
HEL [17] | 92.8 | 96.8 | 84.1 | 77.9 | 24.8
HL-60 [18] | 96.3 | 111 | 92.2 | 56.7 | 16.2
K-562 [19] | 90.1 | 94.8 | 97.8 | 95.2 | 48.5
KCL-22 [20] | 87.2 | 108 | 93.3 | 71.9 | 35.8
KG-1 [21] | 97.2 | 102 | 94.7 | 61 | 23.5
KU-812 [22] | 96.1 | 93 | 93.2 | 33.2 | 7.74
LAMA-84 [23] | 105 | 104 | 98.1 | 89.3 | 36.3
ML-2 [24] | 97.8 | 106 | 104 | 61.4 | 2.29
MOLM-13 [25] | 90.7 | 94.9 | 81.9 | 97.2 | 50.8
MV4-11 [26] | 94.5 | 90.6 | 111 | 65 | 0.624
Mono-Mac-6 [27] | 95 | 92.7 | 102 | 79.1 | 39.4
NOMO-1 [28] | 93.6 | 96.3 | 86.1 | 80.8 | 85.5
SHI-1 [29] | 95.7 | 99.5 | 103 | 86.1 | 69
THP-1 [30] | 92.7 | 100 | 91.9 | 86.3 | 51
